# Reference: US9078949B2, “Compositions of partially deacetylated chitin derivatives” (GENIS HF., priority 2005, dated 2015)
# Read-outs that look alike come from different tables or passages of the source.
# Assays:
# [1] = Absorption of chitooligosaccharides into the blood of a human volunteer (MALDI-TOF MS, GPC, HPIEC); assay type: in vivo; details: for Mass calc (HPIEC homologue): blood sample (7.0 ml) after 3 weeks of ChOS consumption
# Protocol: Chitooligomers composed of N-acetyl glucosamine and glucosamine were prepared by Genis, Reykjavik, Iceland. Briefly, chitin was partially deacetylated in alkali, washed and hydrolysed to oligomers by chitinase. Oligomers were ultrafiltrated, desalted and spray dried to a fine white powder. Average degree of deacetylation was 47% (FA 0.53). Analysis and quantification of oligomers and homologues were performed, using the same methods as for the blood.
# A voluntary subject was consuming daily 1.8 g of ChOS (Genis ehf; S41124-1K) for a period of 4 weeks. Blood samples were collected within a period of 6 weeks. The first sample was taken before consumption of ChOS. The following 4 samples were taken weekly starting 1 week after the first consumption. Sample 6 was taken 2 weeks after stopping the consumption of ChOS. The volume of each sample was 7.0 ml. The blood samples were centrifuged for 30 min at 3000 rpm. The serum was collected. Methanol and sodium chloride were added to a final concentration of 30% methanol and 0.1 mg/ml sodium chloride followed by another centrifugation step. Samples of 500 μl were filtered through 3 kDa cut-off membranes (ultrafiltration). The supernatant was filled up for 3 times. Appropriate filtrates were pooled, the methanol was removed in vacuum, and the samples were finally lyophilised.
# The lyophilised samples (app. 100 μg) were redissolved in 100 μl of methanol/water (v/v 50:50). An aliquot of the solution was mixed on the target with 2 μl of a solution of DHB in 30% aqueous ethanol ([…]). The drop was dried under a gentle stream of air. Mass spectra were recorded on a Bruker Reflex II (Daltonik, Bremen, Germany) in the positive ion mode. For ionisation, a nitrogen laser (337 nm, 3 ns pulse width, 3 Hz) was used. All spectra were measured in the reflector mode using external calibration. Monoisotopic peaks are labelled in all mass spectra.
# The lyophilised samples (appr. 100 μg) were redissolved in 100 μl of methanol/deuterium oxide (v/v 50:50). A 10-fold molar excess of hexadeutero acetic anhydride was added as well as 3 drops of glacial tetradeutero acetic acid. The solution was stirred at 30° C. for 12 h. The reaction was stopped by addition of an equimolar amount of ammonia. The solutions were lyophilised and redissolved in 100 μl of ammonia. The concentration of ammonia was set to a 10-fold molar excess with respect to the moles of N-acetyl glucosamine units (GlcNAc or A). The solution was stirred at 22° C. over night. The ammonia was removed in vacuum, followed by lyophilisation of the samples. […] The concentration of potassium hydroxide was set to a 2-fold molar excess with respect to the moles of GlcNAc units. The solution was stirred for 10 h at r. t. neutralized by addition of cation exchange resin (H^+ form) followed by filtration and lyophilisation of the filtrate.
# MALDI-TOF mass spectra were taken as described in Example 4. The quantification of relative signal intensities leads to the composition of homologues in the mixture.
# The samples are prepared as described under Homologue determination by MALDI-TOF MS. Subsequently, a standard was added to each sample. The standard, a chitin oligomer (An), has to be of the same DP+/−1 as the analyte. A serial dilution of this standard was used. A comparison of the signal intensities of the analyte with the standard gives the concentration of the analyte. […]
# Mixtures of homologues (and oligomers) obtained from the GPC separation were analysed by HPIEC. […]
# Chitinase A [2] = molecular target: T1, Chitinase A (Serratia marcescens, UniProt P07254); experiment: Blocking of Chitinase A activity (4-MU-A3 substrate, fluorescence); assay type: biochemical; details: for blocking of chitinase activity: pH 7.4
# T1 sequence (P07254 24-563): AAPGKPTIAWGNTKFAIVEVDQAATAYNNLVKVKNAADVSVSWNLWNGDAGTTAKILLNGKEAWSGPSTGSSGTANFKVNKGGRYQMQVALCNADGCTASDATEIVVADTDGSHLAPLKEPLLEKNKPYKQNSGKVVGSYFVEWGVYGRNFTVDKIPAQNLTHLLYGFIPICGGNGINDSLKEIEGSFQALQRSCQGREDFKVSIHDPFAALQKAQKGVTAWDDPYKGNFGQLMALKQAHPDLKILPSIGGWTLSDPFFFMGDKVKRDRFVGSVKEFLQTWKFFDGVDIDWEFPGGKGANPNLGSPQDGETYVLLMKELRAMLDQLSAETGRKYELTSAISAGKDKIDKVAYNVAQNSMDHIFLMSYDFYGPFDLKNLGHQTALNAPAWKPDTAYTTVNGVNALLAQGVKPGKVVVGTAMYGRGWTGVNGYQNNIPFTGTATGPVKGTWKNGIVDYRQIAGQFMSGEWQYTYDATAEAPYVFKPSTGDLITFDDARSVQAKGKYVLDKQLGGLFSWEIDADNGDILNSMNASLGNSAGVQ
# Protocol: Chitooligosaccharides (ChOS) (lots No. G020418 and G020218) were fractionated into homologue fractions, either by cation exchange chromatography or gel permeation chromatography or by the combination of both methods. The products were freeze dried and analysed for structure and sequence by MALDI-TOF mass spectrometry. Three other un-fractionated ChOS lots from Genis were also analysed by the same MALDI-TOF method (lots No. G040823, G050421 and G050421UF; where UF stands for ultrafiltrated through 1 kDa membrane to reduce the content of DP≦5).
# A purified Chitinase A preparation from S. marcescens was used as a standard Family 18 chitinase, and 4-methylumbelliferyl-beta-D-N,N′-triacetylchitotrioside (4-MU-A3), a chitin tetramer (A4) analogue, was used as a standard chitinase substrate.
# The standard Chitinase A solution was 0.5 nM (500 pM) in 0.1 mg/ml BSA, 50 mM phosphate buffer pH 7.4 (Chit-A sol.) and the substrate solution was 40 μM 4-MU-A3 in 50 mM phosphate buffer pH 7.4.
# Different concentration of each pure ChOS homologue (usually 0, 25, 50, 100, 200, 400 and 800 μM) was made in the substrate buffer. For the assay, 25 μl of the Chit-A solution was mixed with 25 μl of the substrate/blocking solution, incubated at 37° C. for 10 min. The reaction was stopped with 1.95 ml 0.2 M sodium […] buffer (Na2CO3). The formation of the product, 4-Methylumbelliferone (4-MU) was read for each reaction in a Perken-Elmer LS SOB Fluorometer. The excitation wavelength was 380 nm (5 nm adjusting slit) and the emission wavelength was 460 nm (4 nm adjusting slit). Each reaction was read in triplicate. […] Affinity of each homologue was calculated as inverted IC50.
# Even tough the chitinase A has an optimal activity at pH 5.5, the pH for the blocking experiments was adjusted at pH 7.4. This was done in order to free the amine groups of ChOS from protons, since earlier pilot experiments performed at pH 5.5 indicated low blocking activities of the ChOS homologues. Also this pH better resembles the physiological pH of blood and other physiological fluids, better reflecting the behaviour of the oligosaccharides in the human body.
# Chitinase A [3] = molecular target: T1, Chitinase A; experiment: Cleavage of oligomers by Chitinase A judged by MALDI-TOF (biostability); assay type: in vitro ADME, S. marcescens; details: assay conditions (pH 5.5 and pH 7.4)
# [4] = molecular target: HC gp-39 (39-kDa Human Cartilage Glycoprotein) (Homo sapiens, UniProt P36222); experiment: Binding to HC gp-39 by intrinsic tryptophan fluorescence
# HC gp-39 (39-kDa Human Cartilage Glycoprotein), sequence (P36222 22-383): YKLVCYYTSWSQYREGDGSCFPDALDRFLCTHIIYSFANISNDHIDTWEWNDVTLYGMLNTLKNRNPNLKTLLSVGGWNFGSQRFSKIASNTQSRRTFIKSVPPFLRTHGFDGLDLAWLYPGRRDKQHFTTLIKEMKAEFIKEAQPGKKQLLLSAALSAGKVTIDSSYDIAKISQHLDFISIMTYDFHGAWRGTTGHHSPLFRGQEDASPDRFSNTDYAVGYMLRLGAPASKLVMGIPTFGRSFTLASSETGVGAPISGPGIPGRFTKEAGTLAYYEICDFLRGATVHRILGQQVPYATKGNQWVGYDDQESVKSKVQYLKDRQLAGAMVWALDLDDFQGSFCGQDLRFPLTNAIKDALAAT
# Protocol: The affinities of non-covalent complexes between ChOS and HC gp-39 were analysed making use of the change of the intrinsic tryptophan fluorescence of the protein under binding conditions. The change of fluorescence intensity is caused by ligand-induced changes of the solvent cover of tryptophan residues and positively correlated with the sugar concentration.
# HC gp-39 was dissolved in 25 mM Tris-HCl buffer pH 7.4 containing 1 mM dithiothreitol to a final concentration of 1.00 μM (protein solution). Different concentrations of homologues were prepared in 25 mM Tris-HCl buffer pH 7.4 containing 1 mM dithiothreitol (sugar solution). […] The fluorescence was read for each reaction in a Perkin-Elmer LS SOB fluorescence spectrometer (Perkin-Elmer, Überlingen, Germany). […] Each reaction was measured in triplicate.
# From the row fluorescence data the fluorescence of the blank was subtracted. F-F0 was plotted versus the concentration of the homologue and the data were fitted by non-linear regression to a one-site saturation model employing SigmaPlot® software to obtain binding isotherms. y=Bmax*x/(Kd+x) Bmax: fluorescence intensity for a saturated binding domain of HC gp-39 Kd: dissociation constant.
smiles,measurement,setting,value
CC(=O)N[C@H]1[C@H](O[C@H]2[C@H](O)[C@@H](NC(C)=O)C(O)O[C@@H]2CO)O[C@H](CO)[C@@H](O)[C@@H]1O (stereo partly drawn) [Homologue A2],Mass calc (HPIEC homologue),"[1]; GPC, HPIEC and MALDI-TOF",270 μg
same,Conc (HPIEC homologue),"[1]; blood sample after 3 weeks of ChOS consumption, GPC, HPIEC and MALDI-TOF",39 μg/mL
same,oligomers observed in blood sample,"[1]; post 1 week of ChOS consumption, 1.8 g daily",traces
CC(=O)N[C@H]1[C@H](O[C@H]2[C@H](O)[C@@H](NC(C)=O)C(O)O[C@@H]2CO)O[C@H](CO)[C@@H](O[C@@H]2O[C@H](CO)[C@@H](O)[C@H](O)[C@H]2NC(C)=O)[C@@H]1O (stereo partly drawn) [Homologue A3],Mass calc (HPIEC homologue),"[1]; GPC, HPIEC and MALDI-TOF",30 μg
same,concentration at 3 weeks,"[1]; human, serum, oral, 1.8 g daily (ChOS mixture), blood sample after 3 weeks of ChOS consumption, GPC, HPIEC and MALDI-TOF, read-out: Conc (HPIEC homologue)",4 µg/mL
same,IC50,Chitinase A [2],219 µM
CC(=O)N[C@H]1[C@H](O[C@H]2[C@H](O)[C@@H](NC(C)=O)[C@H](O[C@H]3[C@H](O)[C@@H](NC(C)=O)C(O)O[C@@H]3CO)O[C@@H]2CO)O[C@H](CO)[C@@H](O[C@@H]2O[C@H](CO)[C@@H](O[C@@H]3O[C@H](CO)[C@@H](O[C@@H]4O[C@H](CO)[C@@H](O)[C@H](O)[C@H]4NC(C)=O)[C@H](O)[C@H]3NC(C)=O)[C@H](O)[C@H]2NC(C)=O)[C@@H]1O (stereo partly drawn) [Homologue A6],cleavage by Chitinase A,Chitinase A [3],cleaved
N[C@H]1[C@H](O[C@H]2[C@H](O)[C@@H](N)[C@H](O[C@H]3[C@H](O)[C@@H](N)[C@H](O[C@H]4[C@H](O)[C@@H](N)[C@H](O[C@H]5[C@H](O)[C@@H](N)[C@H](O[C@H]6[C@H](O)[C@@H](N)C(O)O[C@@H]6CO)O[C@@H]5CO)O[C@@H]4CO)O[C@@H]3CO)O[C@@H]2CO)O[C@H](CO)[C@@H](O)[C@@H]1O (stereo partly drawn) [Homologue D6],dissociation constant,[4],μmolar range
same,blocking of chitinase activity,Chitinase A [2],poor blockers
same,IC50,"Chitinase A [2]; pH 7.4, 37° C., 10 min, 4-MU-A3 substrate, NB = no blocking found, read-out: IC50",1980 µM
NC1C(OC2C(CO)OC(OC3C(CO)OC(OC4C(CO)OC(OC5C(CO)OC(OC6C(CO)OC(OC7C(CO)OC(OC8C(CO)OC(OC9C(CO)OC(O)C(N)C9O)C(N)C8O)C(N)C7O)C(N)C6O)C(N)C5O)C(N)C4O)C(N)C3O)C(N)C2O)OC(CO)C(O)C1O (stereo not drawn) [Homologue D9],blocking of chitinase activity,Chitinase A [2],poor blockers
NC1C(OC2C(CO)OC(OC3C(CO)OC(OC4C(CO)OC(OC5C(CO)OC(OC6C(CO)OC(OC7C(CO)OC(OC8C(CO)OC(OC9C(CO)OC(OC%10C(CO)OC(OC%11C(CO)OC(OC%12C(CO)OC(O)C(N)C%12O)C(N)C%11O)C(N)C%10O)C(N)C9O)C(N)C8O)C(N)C7O)C(N)C6O)C(N)C5O)C(N)C4O)C(N)C3O)C(N)C2O)OC(CO)C(O)C1O (stereo not drawn) [Homologue D12],blocking of chitinase activity,Chitinase A [2],poor blockers
